Laboratory results: ChEMBL document CHEMBL1201862, “PubChem BioAssay data set” (2004)
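1) Cells in 96-well plates. 2) Compound, 48 h, 5 concentrations. 3) Linear interpolation between surrounding doses. 4) Unreached endpoint = highest concentration. Abbreviation: GI50, concentration required for 50% inhibition of growth.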 The source made the active and inactive calls. Cut-off read from the data, not from the text of the source: active = GI50 up to about 1.1 µM and inactive = higher.

Legend:
Assay in all cases: inhibition of tumour cell growth, NCI panel, 48 h
[1] = tested on: M14
[2] = tested on: HL-60
[3] = tested on: SF-539
[4] = tested on: TK-10
[5] = tested on: RXF 393
[6] = tested on: MCF7
[7] = tested on: NCI-H226
[8] = tested on: MDA-MB-231
[9] = tested on: OVCAR-5
[10] = tested on: HOP-92
[11] = tested on: EKVX
[12] = tested on: NCI-H522
[13] = tested on: SW-620
[14] = tested on: SNB-19
[15] = tested on: SR
[16] = tested on: RPMI-8226
[17] = tested on: MDA-N
[18] = tested on: HCC 2998
[19] = tested on: NCI-H460
[20] = tested on: Malme-3M

| SMILES | GI50 [1] | GI50 [2] | GI50 [3] | GI50 [4] | GI50 [5] | GI50 [6] | GI50 [7] | GI50 [8] | GI50 [9] | GI50 [10] | GI50 [11] | GI50 [12] | GI50 [13] | GI50 [14] | GI50 [15] | GI50 [16] | GI50 [17] | GI50 [18] | GI50 [19] | GI50 [20] |
| --- | --- | --- | --- | --- | --- | --- | --- | --- | --- | --- | --- | --- | --- | --- | --- | --- | --- | --- | --- | --- |
| C=C(Cl)C(Cl)(CCl)CCC(Br)C(C)(C)Br (centres undefined) | > 10 µM (inactive) | > 10 µM (inactive) | > 10 µM (inactive) | > 10 µM (inactive) | > 10 µM (inactive) | > 10 µM (inactive) | > 10 µM (inactive) | > 10 µM (inactive) | > 10 µM (inactive) | > 10 µM (inactive) | > 10 µM (inactive) | > 10 µM (inactive) | > 10 µM (inactive) | > 10 µM (inactive) | > 10 µM (inactive) | > 10 µM (inactive) | > 10 µM (inactive) | > 10 µM (inactive) |  |  |
| COc1ccc(-c2nc(N(C)C)c3ccccc3n2)cc1 | 14.1 µM (inactive) | 12.4 µM (inactive) | 20.4 µM (inactive) | 18.3 µM (inactive) | 9.29 µM (inactive) | 11 µM (inactive) | 3.31 µM (inactive) | 28.4 µM (inactive) | 14 µM (inactive) | 12.4 µM (inactive) | 3.66 µM (inactive) | 7.96 µM (inactive) | 9.48 µM (inactive) | 17.7 µM (inactive) | 10.8 µM (inactive) | 5.56 µM (inactive) | 14.9 µM (inactive) | 6 µM (inactive) | 10.8 µM (inactive) | 16.8 µM (inactive) |
| CC1=NN(c2nc(N)nc(/C(C#N)=C/c3cccn3-c3cc(Cl)cc(Cl)c3)n2)C(C)(C)C1 | > 100 µM (inactive) | 14.8 µM (inactive) | > 100 µM (inactive) | > 100 µM (inactive) | > 100 µM (inactive) | > 100 µM (inactive) | > 100 µM (inactive) | 41.2 µM (inactive) | > 100 µM (inactive) | > 100 µM (inactive) | > 100 µM (inactive) | > 100 µM (inactive) | > 100 µM (inactive) | 40.6 µM (inactive) | 1.42 µM (inactive) | > 100 µM (inactive) | > 100 µM (inactive) | > 100 µM (inactive) | > 100 µM (inactive) | > 100 µM (inactive) |
| O=C1C(Cl)C2(CC(/C=C/c3ccccc3O)=NN2c2cccc(S(=O)(=O)O)c2)N1c1nc2ccccc2s1 (centres undefined) | 18.3 µM (inactive) | 3.54 µM (inactive) | 16.9 µM (inactive) | 12.3 µM (inactive) | 37.6 µM (inactive) | 15.4 µM (inactive) | 18.9 µM (inactive) | 22.5 µM (inactive) | 22.3 µM (inactive) | 19.7 µM (inactive) | 18.6 µM (inactive) | 3.57 µM (inactive) | 17.4 µM (inactive) | 30.8 µM (inactive) | 15.3 µM (inactive) | 12.1 µM (inactive) | 18.6 µM (inactive) | 14.5 µM (inactive) | 15.1 µM (inactive) | 13.8 µM (inactive) |
| CCN(C(=O)N[C@@H](CC(C)C)C(=O)NCC(=O)OC)c1ccccc1 | > 100 µM (inactive) |  | 41 µM (inactive) | > 100 µM (inactive) | 54 µM (inactive) | > 100 µM (inactive) | > 100 µM (inactive) | > 100 µM (inactive) | > 100 µM (inactive) | > 100 µM (inactive) | > 100 µM (inactive) | > 100 µM (inactive) | > 100 µM (inactive) | > 100 µM (inactive) | > 100 µM (inactive) | > 100 µM (inactive) | > 100 µM (inactive) | > 100 µM (inactive) | 85.7 µM (inactive) | 18 µM (inactive) |
| O=CN(O)CC(=O)O | > 100 µM (inactive) | > 100 µM (inactive) | > 100 µM (inactive) | > 100 µM (inactive) | > 100 µM (inactive) | > 100 µM (inactive) | > 100 µM (inactive) | > 100 µM (inactive) | > 100 µM (inactive) | > 100 µM (inactive) | > 100 µM (inactive) |  | > 100 µM (inactive) | > 100 µM (inactive) | > 100 µM (inactive) | > 100 µM (inactive) | > 100 µM (inactive) | > 100 µM (inactive) | > 100 µM (inactive) | > 100 µM (inactive) |
| O=S(=O)(O)c1c(Cl)cc(O)c2ncccc12 | > 100 µM (inactive) |  | > 100 µM (inactive) |  | > 100 µM (inactive) | > 100 µM (inactive) | > 100 µM (inactive) | > 100 µM (inactive) | > 100 µM (inactive) | > 100 µM (inactive) | > 100 µM (inactive) |  | > 100 µM (inactive) | > 100 µM (inactive) | > 100 µM (inactive) | > 100 µM (inactive) | > 100 µM (inactive) | > 100 µM (inactive) | > 100 µM (inactive) |  |
| CN(C)c1n/c(=N/Cc2ccccn2)ss1 | > 8.89 µM (inactive) | 2.18 µM (inactive) | > 10 µM (inactive) | > 10 µM (inactive) | > 8.79 µM (inactive) | 0.409 µM (active) | > 10 µM (inactive) | > 10 µM (inactive) | 7.38 µM (inactive) | > 10 µM (inactive) | > 10 µM (inactive) |  | > 6.4 µM (inactive) | > 10 µM (inactive) | 1.93 µM (inactive) | 4.48 µM (inactive) | > 10 µM (inactive) | > 10 µM (inactive) | > 10 µM (inactive) | > 4.61 µM (inactive) |
| CC(=O)N1N=C(c2c(O)ccc3ccccc23)CC1c1ccc(Cl)cc1 (centres undefined) | 14.2 µM (inactive) |  | 18.4 µM (inactive) | 30.1 µM (inactive) | 17.1 µM (inactive) | 15.5 µM (inactive) | 40 µM (inactive) | 19.1 µM (inactive) | 14.7 µM (inactive) | 10.9 µM (inactive) |  | 22.9 µM (inactive) | 28.4 µM (inactive) |  | 6.35 µM (inactive) | 10.5 µM (inactive) | 19.5 µM (inactive) | 17.7 µM (inactive) | 15.1 µM (inactive) | 17.5 µM (inactive) |
| O=C(/C=C/c1ccc2ccccc2c1)NCc1ccc(C(=O)NCCc2ccccc2)cc1 | > 100 µM (inactive) | 43.7 µM (inactive) |  |  | > 100 µM (inactive) | > 100 µM (inactive) | 43.5 µM (inactive) | > 100 µM (inactive) | > 100 µM (inactive) | > 100 µM (inactive) |  |  | > 100 µM (inactive) | > 100 µM (inactive) | > 100 µM (inactive) | > 100 µM (inactive) | > 100 µM (inactive) | > 100 µM (inactive) | > 100 µM (inactive) |  |
| COc1ccc(CCNC(=O)Cc2cc(OC)c(OC)cc2CO)cc1OC | > 100 µM (inactive) | > 100 µM (inactive) | > 100 µM (inactive) | > 100 µM (inactive) | > 100 µM (inactive) | > 100 µM (inactive) | > 100 µM (inactive) | > 100 µM (inactive) | > 100 µM (inactive) | > 100 µM (inactive) | > 100 µM (inactive) | > 100 µM (inactive) | > 100 µM (inactive) |  | > 100 µM (inactive) | > 100 µM (inactive) | > 100 µM (inactive) | > 100 µM (inactive) | > 100 µM (inactive) |  |
| COc1cccc(-c2nc(N)c(C#N)c3c2CCS(=O)(=O)c2ccc(C)cc2-3)c1 | 25.7 µM (inactive) | 5.08 µM (inactive) | 33.6 µM (inactive) | > 68.9 µM (inactive) |  | 37.9 µM (inactive) | > 51.5 µM (inactive) | 21.8 µM (inactive) | > 100 µM (inactive) | 68.7 µM (inactive) | 50.6 µM (inactive) | 2.68 µM (inactive) | > 34.1 µM (inactive) | > 31.3 µM (inactive) | 1.26 µM (inactive) |  | 3.08 µM (inactive) | 17.6 µM (inactive) | 10.8 µM (inactive) | 18.2 µM (inactive) |
| NC(=O)c1nnsc1NC=O | > 100 µM (inactive) | > 100 µM (inactive) |  |  | > 100 µM (inactive) | > 100 µM (inactive) | > 100 µM (inactive) | > 100 µM (inactive) | > 100 µM (inactive) | 75 µM (inactive) | > 100 µM (inactive) | > 100 µM (inactive) | > 100 µM (inactive) | > 100 µM (inactive) | > 100 µM (inactive) | > 100 µM (inactive) | > 100 µM (inactive) | > 100 µM (inactive) | > 100 µM (inactive) | > 100 µM (inactive) |
| CCOC(=O)/C(=C\NC(=S)Nc1ccc(OCC)cc1)C(=O)c1ccccc1 | > 100 µM (inactive) | > 100 µM (inactive) | > 100 µM (inactive) |  | > 100 µM (inactive) | > 100 µM (inactive) | > 100 µM (inactive) | > 100 µM (inactive) | > 100 µM (inactive) | 8.26 µM (inactive) | > 100 µM (inactive) | > 100 µM (inactive) | > 100 µM (inactive) | > 100 µM (inactive) | > 100 µM (inactive) | > 100 µM (inactive) | > 100 µM (inactive) | > 100 µM (inactive) | > 100 µM (inactive) | > 100 µM (inactive) |
| O=C1C/C(=C\O)C(=O)c2ccccc2N1 | > 100 µM (inactive) | > 100 µM (inactive) | > 100 µM (inactive) | > 100 µM (inactive) | > 100 µM (inactive) | > 100 µM (inactive) | > 100 µM (inactive) | > 100 µM (inactive) | > 100 µM (inactive) | > 100 µM (inactive) | > 100 µM (inactive) | > 100 µM (inactive) |  | > 100 µM (inactive) | > 100 µM (inactive) |  | > 100 µM (inactive) | > 100 µM (inactive) | > 100 µM (inactive) | > 100 µM (inactive) |
